Literature values, collected in US6958144B2, “Methods of whitening teeth” (Britesmile Development, Inc., priority 1995, dated 2005).

Settings: 10% carbamide peroxide solution, background statement

- equilibrium pH: approximately 3.45
Structure (SMILES): NC(N)=O.OO [carbamide peroxide]
